For data set [1] the following is noted: mice; cited from earlier work.
The conditions of data set [2]: cited from earlier work.
The conditions of data set [3]: cited from earlier work. The source holds these as a separate data set.
The nature of data set [4]: Randomized, controlled, open-label, 3-arm study (CC, SA, SW): total NNAL, CEMA and free cotinine measured in urine. It counts as in vivo, human. Conditions: for Free Cotinine (ng/mL) SA: SA arm; for concentration at 2 day: human, inhaled. The text has this: The study included healthy smokers switching to a heat-not-burn (smoke-free alternative (SW)) product or those observing smoking abstinence (SA), compared with continuing to use CC, for 5 days in confinement and prolonged by 85 days in an ambulatory setting. This was an ad libitum smoking study. Baseline measurements are taken by allowing the subject to smoke their chosen brand of conventional cigarette for 2 days. After this 2 day period, the subject is then elected to continue smoking conventional cigarettes, to switch to a smoke-free alternative or to abstain from smoking. The investigational period then begins. Methods for measuring each of the metabolites are described in Haziza et al. (2017) Data in Brief 10, 283-293.
During the confinement period, compliance to product/regimen allocation (exclusive use of smoke-free alternative and CC in SW and CC arms, respectively, and full abstinence from smoking in the SA arm) was ensured by strict distribution of each tobacco stick/CC when requested by the subject. During the ambulatory period, the subjects randomized to the SW arm were instructed to exclusively use HNB products and subjects randomized to the SA arm were instructed to abstain from smoking.
Furthermore, the data are represented as boxplots in the figures below. The bottom of the box is the first quartile (value below which 25% of the observations lie), the top is the third quartile (value below which 75% of the observations lie) and the middle bar is the median of the observations. The whiskers extend to the minimum observed value and maximum observe value respectively.

For data set [5] the following is noted: cited from earlier work; for levels of total NNAL: smoking cessation study.
The conditions of data set [6]: 24-hour urine, cited from earlier work.
For data set [7] the following is noted: cited from earlier work. The source holds these as a separate data set.
Where [8] appears, read: intravenous infusion of nicotine in abstinent adult smokers.
Setting [9] is: 15 CPD during 5-day confinement.
[10] abbreviates: 20 CPD during 5-day confinement.
Setting [11] is: consumers of conventional cigarettes.
Where [12] appears, read: consumers of smoke-free alternatives.

Like-named read-outs stand apart in the source and are kept apart here.

Results on seven compounds are retold here after patent US11630106B2, “Diagnostic test for distinguishing the smoking status of a subject” (PHILIP MORRIS PRODUCTS S.A., priority 2017, dated 2023).

For the compound `CN1C(=O)[C@H](O)C[C@H]1c1cccnc1` (relative stereo) [trans-3′-hydroxycotinine], in data set [1], the “share of the dose of nicotine accounted for by the metabolite” value was 40-60%. In data set [2] (in vivo), the total clearance entry is recorded as “about 82 mL min-1”. The half-life in data set [2] (setting [8]) is on record as 6.6 h.

Take `C[N+]1([O-])CCC[C@H]1c1cccnc1` (stereo partly shown) [nicotine-1′-N-oxide]: the “share of the nicotine absorbed by smokers (minor metabolite)” value in data set [2] (in vivo) is listed as 4-7%.

As for `CN1C(=O)CC[C@H]1c1cccnc1` [Free Cotinine, cotinine], the “share of the dose of nicotine accounted for by the metabolite” value in data set [1] was “about 15%”. Besides, the in vivo half-life result in data set [2] (in vivo) was “about 20 hours”. Also, the total clearance in data set [2] (in vivo) was 45 mL/min. For the same compound, the half-life in data set [2] (setting [8]) was 17.5 h. In data set [3] (consuming more than 20 cigarettes a day), the “cotinine levels indicative of heavy smoker status” value was “above 300 ng/mL”. For the same compound, the “cotinine levels indicative of no active smoking” value in data set [3] (in vivo) is below 10 ng/mL. The “cotinine levels in active smokers” value in data set [3] (saliva) is recorded as at least 100 ng/mL; in data set [3] (urine), at least 500 ng/mL. Further, the “detectability after smoking abstinence” value in data set [3] (urine, saliva or blood) is recorded as “no longer detectable in urine, saliva or blood after about two days of smoking abstinence”. The “Free Cotinine (ng/mL) SA” value in data set [4] (Day 2, IQR, listed as cotinine) was 339 to 959 ng/mL; in data set [4] (Day 2, IQR, listed as free cotinine), 128 to 313 ng/mL. The concentration at 2 day in data set [4] (SW arm, Day 2, IQR, read-out: Free Cotinine (ng/mL) SW) lay within 546 to 1160 ng/mL; in data set [4] (day 2, read-out: cotinine levels in conventional cigarette smokers), 459 to 1350 ng/mL.

As for `O=NN1CCC[C@H]1c1cccnc1` [NNN], the “detectability in the urine of non-smokers” value in data set [5] was “Neither NNAL nor NNN are in principle detectable”.

As to `CN(CCCC(O)c1cccnc1)N=O` (stereo not shown) [Total NNAL, 4-(methylnitrosamino)-1-(3-pyridyl)-1-butanol], the “levels of urinary NNAL” value is on record as 311 ng/24 h in data set [5] (0 CPD during 5-day confinement), 422 ng/24 h in data set [5] (5 CPD during 5-day confinement), 549 ng/24 h in data set [5] (setting [9]) and 624 ng/24 h in data set [5] (setting [10]). The “levels of total NNAL” value in data set [5] (after 28 days) is given as 0.26 nmol/24 h; in data set [5] (after 42 days), 0.2 nmol/24 h; in data set [5] (baseline), 2.70 nmol/24 h; in data set [5] (day 56), 0.13 nmol/24 h. For the same compound, the “decrease of NNAL levels” value in data set [5] (smoking cessation/abstinence studies lasting 3 to 8 days) is reported as 3- to 4 fold. In data set [5], the “detectability in the urine of non-smokers” value is “Neither NNAL nor NNN are in principle detectable”. The “urine levels in non-smokers using other tobacco or nicotine replacement products or exposed to second-hand smoke” value in data set [5] (urine) is around 0.1 nmol. The half-life in data set [5] (usually measured in the urine, estimated) was 17 h. Moreover, the “Total NNAL (pg/mL) SW” value in data set [4] (SW arm, Day 5, IQR) was 17 to 41 pg/mL. The “total NNAL levels in smoking abstainers” value in data set [4] (between day 5 and day 30) fell in the range of 2.5 to 46 pg/mL. Also, the “baseline total NNAL, range” value in data set [6] (setting [11]) is 84-131 pg/mg creatinine; in data set [6] (setting [12]), 95-129 pg/mg creatinine; in data set [6] (smoking abstainers), 94-150 pg/mg creatinine. Besides, the “baseline total NNAL, value in brackets” value is on record as 105 pg/mg creatinine in data set [6] (setting [11]), 111 pg/mg creatinine in data set [6] (setting [12]) and 119 pg/mg creatinine in data set [6] (smoking abstainers). Further, the “average increase at day 5 compared to baseline” value in data set [6] (setting [11]) was 3.9%. Moreover, the “change at day 5 compared to baseline, range” value (“change” for short) is listed as −2.8% to 10.5% in data set [6] (setting [11]) and −57% to −51% in data set [6] (setting [12]). Also, the results for the “total NNAL at day 5, range” value in data set [6] (setting [11]), in data set [6] (setting [12]) and in data set [6] (smoking abstainers) were 85-133 pg/mg creatinine, 42-58 pg/mg creatinine and 31-54 pg/mg creatinine, respectively. Further, the “total NNAL at day 5, value in brackets” value is listed as 107 pg/mg creatinine in data set [6] (setting [11]), 49 pg/mg creatinine in data set [6] (setting [12]) and 41 pg/mg creatinine in data set [6] (smoking abstainers). The figures for the “average decrease at day 5 compared to baseline” value (“average decrease” for short) in data set [6] (setting [12]) and in data set [6] (smoking abstainers) were −54% and −63.9%, respectively. The “decrease at day 5 compared to baseline, range” value in data set [6] (smoking abstainers) was −67 to −61%.

Consider `CN1CCCC1c1cccnc1` (stereo not shown) [nicotine], for which the half-life in data set [2] (in vivo, iv) was 2.3 h. Moreover, in data set [2] (in vivo), the “share of the inhaled amount metabolized by the liver (first pass effect)” value was 80-90% and the total clearance result is “about 1200 mL min-1”.

Regarding `CC(=O)N[C@@H](CSCCC#N)C(=O)O` [CEMA, 2-cyanoethylmercapturic acid], in data set [7] (0 CPD during 5-day confinement), the “levels of urinary CEMA” value was 38.3 μg/24 h. The “levels of urinary CEMA” value in data set [7] (5 CPD during 5-day confinement) is reported as 93.2 μg/24 h. For the same compound, the “levels of urinary CEMA” value in data set [7] (setting [9]) is listed as 168.0 μg/24 h. Besides, the “levels of urinary CEMA” value in data set [7] (setting [10]) is 218.0 μg/24 h. Also, in data set [7] (non-smokers), the “CEMA excreted (mean±SD)” value was 4.6 ± 35 µg/L; the “CEMA excreted (second value, 'or')” value is 1.9 µg/L; the “urinary excretion of CEMA, range” value is listed as “below 2 ng/mL”. Besides, in data set [7] (smokers), the “CEMA excreted (mean±SD)” value is 187 ± 181 µg/L; the “CEMA excreted (second value, 'or')” value is 184 µg/L; the “urinary excretion of CEMA, range” value was 20 to 205 ng/mL. In data set [7] (smoking cessation studies of 5 to 8 days), the “lowering of CEMA levels in urine” value is 7- to 10 fold. Also, in data set [6] (setting [11]), the “baseline CEMA, range” value is given as 83-115 ng/mg creatinine; the “baseline CEMA, value in brackets” value is given as 98 ng/mg creatinine; the “average increase at day 5 compared to baseline” value is listed as 4.2%; the “change” value is given as −4% to 12%. For the same compound, in data set [6] (setting [11]), the “CEMA at day 5, range” value is listed as 85-115 ng/mg creatinine and the “CEMA at day 5, value in brackets” value is listed as 99.5 ng/mg creatinine. Further, in data set [6] (setting [12]), the “baseline CEMA, range” value is 85-112 ng/mg creatinine; the “baseline CEMA, value in brackets” value was 98 ng/mg creatinine; the “average decrease” value was −86%; the “change” value is −87% to −85%. In data set [6] (setting [12]), the “CEMA at day 5, range” value was 11-15 ng/mg creatinine and the “CEMA at day 5, value in brackets” value was 13 ng/mg creatinine. In addition, in data set [6] (smoking abstainers), the “baseline CEMA, range” value is reported as 89-119 ng/mg creatinine; the “baseline CEMA, value in brackets” value is recorded as 103 ng/mg creatinine; the “average decrease” value is given as −86%; the “decrease at day 5 compared to baseline, range” value was −88 to −85%. Further, in data set [6] (smoking abstainers), the “CEMA at day 5, range” value was 10-15 ng/mg creatinine and the “CEMA at day 5, value in brackets” value is on record as 12 ng/mg creatinine.
